The source made the active and inactive calls. No cut-off for these calls is given here.

This note sets out measurements from ChEMBL document CHEMBL4020841, “Structure Guided Lead Generation toward Nonchiral M. tuberculosis Thymidylate Kinase Inhibitors” (J Med Chem, 2018).

For this assay, the system named is Mycobacterium tuberculosis. The assay is described as follows: Antimicrobial activity against Mycobacterium tuberculosis H37Ra ATCC 25177 harboring pSMT1 luciferase reporter plasmid up to 64 uM after 7 days by luminometric method. In kind it is functional.
On to `Cc1cn(C2CCN(Cc3ccncc3)CC2)c(=O)[nH]c1=O`, for which the result was inactive. As for `Cc1cn(C2CCN(C(=O)c3cccc(Oc4ccccc4)c3)CC2)c(=O)[nH]c1=O`, the entry is “inactive”. To `COc1ccc(CN2CCC(n3cc(C)c(=O)[nH]c3=O)CC2)cc1` belongs “inactive”; to `Cc1cn(C2CN(Cc3ccc(Oc4ccccc4)cc3)C2)c(=O)[nH]c1=O`, “inactive”.

For `Cc1cn(C2CCN(Cc3cncc4ccccc34)CC2)c(=O)[nH]c1=O`, the result was inactive.

For `Cc1cn(C2CCN(C(=O)c3ccc(Oc4ccccc4)cc3)CC2)c(=O)[nH]c1=O`, the result was inactive.

Regarding `Cc1cn(C2CCN(Cc3cc(Oc4ccccc4)c4ccc(Cl)cc4n3)CC2)c(=O)[nH]c1=O`, the result was inactive. To `Cc1ccc(CN2CCC(n3cc(C)c(=O)[nH]c3=O)CC2)cc1` belongs “inactive”; to `Cc1cn(C2CCN(Cc3ccc(N(C)C)cc3)CC2)c(=O)[nH]c1=O`, “inactive”. For the compound `Cc1cn(C2CCN(Cc3ccc(Oc4ccccc4)cc3)CC2)c(=O)[nH]c1=O`, the outcome was inactive. To `Cc1cn(C2CCN(Cc3ccccc3)CC2)c(=O)[nH]c1=O` belongs “inactive”; to `Cc1cn(C2CCN(Cc3cc4ccccc4cn3)CC2)c(=O)[nH]c1=O`, “inactive”; to `Cc1cn(C2CCN(Cc3ccc(Cl)cc3)CC2)c(=O)[nH]c1=O`, “inactive”.

`Cc1cn(C2CCN(Cc3ccc(C(=O)O)cc3)CC2)c(=O)[nH]c1=O`: the result was inactive. To `Cc1cn(C2CCN(Cc3ccccn3)CC2)c(=O)[nH]c1=O` belongs “inactive”. To `Cc1cn(C2CCN(Cc3cc4ccccc4o3)CC2)c(=O)[nH]c1=O` belongs “inactive”. As for `Cc1cn(C2CCN(Cc3ccoc3)CC2)c(=O)[nH]c1=O`, the entry is “inactive”; as for `Cc1cn(C2CCN(Cc3cccc4ccccc34)CC2)c(=O)[nH]c1=O`, “inactive”. As for `Cc1cn(C2CCN(CC3CCCCC3)CC2)c(=O)[nH]c1=O`, the outcome was inactive. As for `Cc1cn(C2CCN(Cc3ccc(C#N)cc3)CC2)c(=O)[nH]c1=O`, the entry is “inactive”; as for `Cc1cn(C2CCN(Cc3ccnc4ccccc34)CC2)c(=O)[nH]c1=O`, “inactive”; as for `Cc1cn(C2CCN(Cc3nccc4ccccc34)CC2)c(=O)[nH]c1=O`, “inactive”. With `Cc1cn(C2CN(CCc3cccc(Oc4ccccc4)c3)C2)c(=O)[nH]c1=O`, the outcome was inactive.

Regarding `Cc1cn(C2CCN(Cc3ccc4ccccc4c3)CC2)c(=O)[nH]c1=O`, the result was inactive. Consider `Cc1cn(C2CCN(Cc3cccc(C(=O)O)n3)CC2)c(=O)[nH]c1=O`, for which the result was inactive.

Turning to `Cc1cn(C2CCN(Cc3cnc4ccccc4c3)CC2)c(=O)[nH]c1=O`, the outcome was inactive. Turning to `Cc1cn(CC2CCN(Cc3cccc(Oc4ccccc4)c3)CC2)c(=O)[nH]c1=O`, the outcome was inactive. Turning to `Cc1cn(C2CN(Cc3cccc(Oc4ccccc4)c3)C2)c(=O)[nH]c1=O`, the result was inactive.

For the compound `Cc1cccc(CN2CCC(n3cc(C)c(=O)[nH]c3=O)CC2)c1`, the result was inactive. `Cc1cn(C2CCN(Cc3cccc(Oc4ccccc4)c3)CC2)c(=O)[nH]c1=O`: the outcome was inactive. Take `Cc1cn(C2CN(CCCc3cccc(Oc4ccccc4)c3)C2)c(=O)[nH]c1=O`: the outcome was inactive. To `Cc1cn(C2CCN(Cc3ccco3)CC2)c(=O)[nH]c1=O` belongs “inactive”; to `Cc1cn(CC2CCN(Cc3ccc(Oc4ccccc4)cc3)CC2)c(=O)[nH]c1=O`, “inactive”; to `Cc1cn(C2CCN(CCc3cccc(Oc4ccccc4)c3)CC2)c(=O)[nH]c1=O`, “inactive”. As for `Cc1cn(C2CCN(Cc3cccnc3)CC2)c(=O)[nH]c1=O`, the outcome was inactive.
